Structures can show the parent of a compound that is named as a salt.
Experiments:
FLT3 = target: T1, FLT3 (Homo sapiens, UniProt P36888); assay: TR-FRET kinase activity assay, FLT3; assay type: biochemical; details: ATP at Km, 60 minutes
T1 sequence (P36888 27-993): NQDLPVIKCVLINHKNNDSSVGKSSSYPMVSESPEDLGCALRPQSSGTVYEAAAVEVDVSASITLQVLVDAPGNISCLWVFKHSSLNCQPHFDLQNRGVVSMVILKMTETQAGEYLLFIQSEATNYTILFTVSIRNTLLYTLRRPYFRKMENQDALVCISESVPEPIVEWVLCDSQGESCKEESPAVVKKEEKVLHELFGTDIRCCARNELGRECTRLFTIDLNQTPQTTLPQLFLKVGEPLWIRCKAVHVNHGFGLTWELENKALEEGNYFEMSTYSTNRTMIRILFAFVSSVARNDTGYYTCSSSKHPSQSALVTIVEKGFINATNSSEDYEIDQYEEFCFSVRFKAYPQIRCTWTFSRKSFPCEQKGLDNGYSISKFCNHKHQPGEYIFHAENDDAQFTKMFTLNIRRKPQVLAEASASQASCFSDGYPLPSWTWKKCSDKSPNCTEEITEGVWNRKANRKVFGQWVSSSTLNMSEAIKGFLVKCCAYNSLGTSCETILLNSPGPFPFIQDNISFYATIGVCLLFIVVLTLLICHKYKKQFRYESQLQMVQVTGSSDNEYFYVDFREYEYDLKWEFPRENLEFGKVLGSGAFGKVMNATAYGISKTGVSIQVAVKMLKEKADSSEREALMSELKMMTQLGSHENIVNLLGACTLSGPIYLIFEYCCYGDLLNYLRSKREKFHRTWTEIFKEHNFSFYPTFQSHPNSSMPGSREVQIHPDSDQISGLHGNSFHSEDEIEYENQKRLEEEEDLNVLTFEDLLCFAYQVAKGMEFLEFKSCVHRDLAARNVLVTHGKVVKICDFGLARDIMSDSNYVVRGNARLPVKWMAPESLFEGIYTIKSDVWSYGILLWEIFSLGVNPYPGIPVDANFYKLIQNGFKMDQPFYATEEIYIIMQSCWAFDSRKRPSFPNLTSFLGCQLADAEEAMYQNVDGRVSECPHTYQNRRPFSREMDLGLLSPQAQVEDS
Method in brief: (§1)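 Buffer 50 mM HEPES pH 7.5/10 mM MgCl2/1 mM EGTA/0.01% Brij 35/1 mM DTT, RT. Km ATP per kinase, labeled peptide, 60 min; 12.5 mM EDTA stop; Eu-Ab 30 min dark; TR-FRET → IC50.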

AXL = target: T2, AXL (Homo sapiens, UniProt P30530); assay: TR-FRET kinase activity assay, AXL; assay type: biochemical; details: ATP at Km, 60 minutes
T2 sequence (P30530 26-894): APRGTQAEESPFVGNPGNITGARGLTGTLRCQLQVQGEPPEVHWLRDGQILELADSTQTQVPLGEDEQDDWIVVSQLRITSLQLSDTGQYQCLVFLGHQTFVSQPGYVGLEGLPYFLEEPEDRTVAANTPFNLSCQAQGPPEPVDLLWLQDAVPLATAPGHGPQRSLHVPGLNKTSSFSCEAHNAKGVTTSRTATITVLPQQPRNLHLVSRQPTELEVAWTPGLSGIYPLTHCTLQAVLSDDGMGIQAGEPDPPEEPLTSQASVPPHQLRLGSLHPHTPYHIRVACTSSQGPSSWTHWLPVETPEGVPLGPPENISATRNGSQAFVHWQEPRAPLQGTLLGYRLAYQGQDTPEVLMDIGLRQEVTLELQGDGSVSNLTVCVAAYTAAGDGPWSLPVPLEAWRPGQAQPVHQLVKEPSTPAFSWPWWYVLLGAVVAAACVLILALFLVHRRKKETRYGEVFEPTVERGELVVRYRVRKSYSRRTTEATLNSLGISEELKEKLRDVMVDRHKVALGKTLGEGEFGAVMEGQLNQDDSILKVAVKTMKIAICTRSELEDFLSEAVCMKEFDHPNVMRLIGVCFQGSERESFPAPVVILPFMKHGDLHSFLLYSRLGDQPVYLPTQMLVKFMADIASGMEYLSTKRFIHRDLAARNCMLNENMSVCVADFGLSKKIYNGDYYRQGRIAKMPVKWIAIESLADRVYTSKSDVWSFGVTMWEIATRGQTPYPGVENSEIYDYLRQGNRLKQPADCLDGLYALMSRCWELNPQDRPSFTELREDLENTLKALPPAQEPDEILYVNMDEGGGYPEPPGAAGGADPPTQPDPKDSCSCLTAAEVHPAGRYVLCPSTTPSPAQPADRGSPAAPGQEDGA
Method in brief: as §1

| SMILES | IC50 (FLT3) [nM] | IC50 (AXL) [nM] |
| --- | --- | --- |
| CCCC(C)Nc1ncc2c(OC3CCOCC3)ncc([C@H]3CC[C@@H](N(C)C)CC3)c2n1 (some centres unmarked) [Compound 184] | 1000 to 10000 | 1000 to 10000 |
| CCCC(C)Nc1ncc2c(OC3CCS(=O)(=O)CC3)ncc([C@H]3CC[C@@H](O)CC3)c2n1 (some centres unmarked) [Compound 142] | 1000 to 10000 | 1000 to 10000 |
| C[C@@H](CO)Nc1ncc2c(OC3CCOCC3)ncc([C@H]3CC[C@H](O)CC3)c2n1 [Compound 137] | 1000 to 10000 | 1000 to 10000 |
| CCCC(C)Nc1ncc2c(OC3CCNCC3)ncc([C@H]3CC[C@H](O)CC3)c2n1 (some centres unmarked) [Compound 166] | 100 to 1000 | 100 to 1000 |
| CCCC(C)Nc1ncc2c(N3CCC[C@H](N(C)C)C3)ncc([C@H]3CC[C@H](O)CC3)c2n1 (some centres unmarked) [Compound 180] | 1000 to 10000 | 1000 to 10000 |
| CCCC(C)Nc1ncc2c(N3CC[C@@H](N(C)C)C3)ncc([C@H]3CC[C@H](O)CC3)c2n1 (some centres unmarked) [Compound 156] | 1000 to 10000 | 100 to 1000 |
| CCCC(C)Nc1ncc2c(NC3CCNCC3)ncc([C@H]3CC[C@H](O)CC3)c2n1 (some centres unmarked) [Compound 158] | 100 to 1000 | ≤ 100 |

The remaining lines, values ahead:

| IC50 (FLT3) [nM] | IC50 (AXL) [nM] | SMILES |
| --- | --- | --- |
| 100 to 1000 | ≤ 100 | CCCC(C)Nc1ncc2c(NC3CCN(C)CC3)ncc([C@H]3CC[C@H](O)CC3)c2n1 (some centres unmarked) [Compound 154] |
| 100 to 1000 | ≤ 100 | CCCC(C)Nc1ncc2c(OC3CC(C)(C)N(C)C(C)(C)C3)ncc([C@H]3CC[C@H](O)CC3)c2n1 (some centres unmarked) [Compound 161] |
| 100 to 1000 | 100 to 1000 | CCCC(C)Nc1ncc2c(O[C@H]3C[C@H]4CC[C@@H](C3)O4)ncc([C@H]3CC[C@H](O)CC3)c2n1 (some centres unmarked) [Compound 175] |
| ≤ 100 | ≤ 100 | CCCCNc1ncc2c(OC3CCOCC3)ncc([C@H]3CC[C@H](O)CC3)c2n1 [Compound 104, (1r,4r)-4-(2-(butylamino)-5-((tetrahydro-2H-pyran-4-yl)oxy)pyrido[4,3-d]pyrimidin-8-yl)cyclohexanol] |
| 1000 to 10000 | 100 to 1000 | CCCC(C)Nc1ncc2c(=O)n(C3CCN(C(C)=O)CC3)cc([C@H]3CC[C@H](O)CC3)c2n1 (some centres unmarked) [Compound 128, 6-(1-acetylpiperidin-4-yl)-8-((1r,4r)-4-hydroxycyclohexyl)-2-(pentan-2-ylamino)pyrido[4,3-d]pyrimidin-5(6H)-one hydrochloride] |
| 1000 to 10000 | 1000 to 10000 | CCCC(C)Nc1ncc2c(OC3CCC(F)(F)CC3)ncc([C@H]3CC[C@H](O)CC3)c2n1 (some centres unmarked) [Compound 153] |

Source: US20200291018A1, “TAM KINASE INHIBITORS” (SYROS PHARMACEUTICALS, INC., priority 2017, published 2020)
